From patent US20230391752A1, “PYRROLIDINE-3-CARBOXAMIDE DERIVATIVES AND RELATED USES” (Chulalongkorn University, priority 2020, published 2023)

system: HBV; assay: In vitro anti-HBV activity in HepG2.2.15 cell line (intracellular HBV DNA by qPCR at 1 μM); assay type: cell-based; details: Hepatitis B virus, 144 h; HepG2.2.15 cells, 1 μM compound, 6 days, intracellular HBV DNA as percentage compared to vehicle control (0.5% DMSO)
Procedure: The stable transfected HBV cell line, called HepG2.2.15 cells was a valuable model with high reproducibility and commonly used for drug screening. To identify the anti-HBV activity, HepG2.2.15 cells were seeded at 5×10^5 cells/well with high glucose Dulbecco's modified Eagle medium (DMEM) containing 10% heat inactivated fetal bovine serum (FBS), 300 mg/L G418, non-essential amino acids (NEAA) 100 units/ml Antibiotic-Antimycotic, and allowed to stand for an overnight in an incubator set at 37° C. and 5% C02. HepG2.2.15 cells in each well were treated with the medium containing a compound (1 μM with 0.5% dimethyl sulfoxide (DMSO final concentration) for three days in the incubator. After that the medium was removed and fresh medium containing the compound was added to the cells for another 3 days. After 6 days of treatment, intracellular HBV DNA was extracted and determined by using quantitative real-time PCR (qPCR) technique with specific primers. Intrahepatic HBV DNA viral load was reported as percentage compared to vehicle control (0.5% DMSO) as shown in Table A.
“B” means % ranging between 80 and 90; “C” means % ranging between 70 and 80; “D” means % ranging between 60 and 70; “E” means % ranging between 45 and 60, “F” means %<45.

First: O=C(Nc1cc(F)c(F)c(F)c1)[C@H]1CCN(C(=O)c2[nH]c3ccccc3c2-c2cn[nH]c2)C1 [Example 140, (S)-1-(3-(1H-pyrazol-4-yl)-1H-indole-2-carbonyl)-N-(3,4,5-trifluorophenyl)pyrrolidine-3-carboxamide]
Second: O=C(Nc1cc(F)c(F)c(F)c1)[C@H]1CCN(C(=O)c2ccc(-c3ccccn3)[nH]2)C1 [Example 90, (S)-1-(5-(pyridin-2-yl)-1H-pyrrole-2-carbonyl)-N-(3,4,5-trifluorophenyl)pyrrolidine-3-carboxamide]
The activity at 1 µM of the first is higher: greater than 90% for the first, 70 to 80% for the second.

First: Cc1ncsc1-c1ccc(C(=O)N2CC[C@H](C(=O)Nc3cc(F)c(F)c(F)c3)C2)[nH]1 [Example 108, (S)-1-(5-(4-methylthiazol-5-yl)-1H-pyrrole-2-carbonyl)-N-(3,4,5-trifluorophenyl) pyrrolidine-3-carboxamide]
Second: Cc1ncn(C)c1-c1ccc(C(=O)N2CC[C@H](C(=O)Nc3cc(F)c(F)c(F)c3)C2)[nH]1 [Example 107, (S)-1-(5-(1,4-dimethyl-1H-imidazol-5-yl)-1H-pyrrole-2-carbonyl)-N-(3,4,5-trifluorophenyl) pyrrolidine-3-carboxamide]
The activity at 1 µM of the first is lower: 45 to 60% for the first, 70 to 80% for the second.

O=C(Nc1cc(F)c(F)c(F)c1)[C@H]1CCN(C(=O)c2ccc3cc[nH]c3c2)C1 [Example 35, (S)-1-(1H-indole-6-carbonyl)-N-(3,4,5-trifluorophenyl)pyrrolidine-3-carboxamide] and O=Cc1c[nH]c2cc(C(=O)N3CC[C@H](C(=O)Nc4cc(F)c(F)c(F)c4)C3)ccc12 [Example 36, (S)-1-(3-formyl-1H-indole-6-carbonyl)-N-(3,4,5-trifluorophenyl)pyrrolidine-3-carboxamide] fall in the same range of activity at 1 µM: 70 to 80% for the first, 70 to 80% for the second.

First: N#Cc1c[nH]c(C(=O)N2CC[C@H](C(=O)Nc3ccc(F)c(Cl)c3)C2)c1 [Example 40, (S)—N-(3-chloro-4-fluorophenyl)-1-(4-cyano-1H-pyrrole-2-carbonyl)pyrrolidine-3-carboxamide]
Second: Cc1ncccc1-c1ccc(C(=O)N2CC[C@H](C(=O)Nc3ccc(F)c(C#N)c3)C2)[nH]1 [Example 81, (S)—N-(3-cyano-4-fluorophenyl)-1-(5-(2-methylpyridin-3-yl)-1H-pyrrole-2-carbonyl) pyrrolidine-3-carboxamide]
The activity at 1 µM of the first is higher: greater than 90% for the first, 45 to 60% for the second.

Compared with O=C(Nc1cc(F)c(F)c(F)c1)[C@H]1CCN(C(=O)c2ccc(C(F)F)[nH]2)C1 [Example 11, (S)-1-(5-(difluoromethyl)-1H-pyrrole-2-carbonyl)-N-(3,4,5-trifluorophenyl)pyrrolidine-3-carboxamide], Cc1ccc(C(=O)N2CC[C@H](C(=O)Nc3cc(F)c(F)c(F)c3)C2)[nH]1 [Example 1, (S)-1-(5-methyl-1H-pyrrole-2-carbonyl)-N-(3,4,5-trifluorophenyl)pyrrolidine-3-carboxamide] is lower in activity at 1 µM: 70 to 80% for the first, 45 to 60% for the second.

First: Cc1c(-c2ccc(C(=O)N3CC[C@H](C(=O)Nc4cc(F)c(F)c(F)c4)C3)[nH]2)c2ncccc2n1C [Example 152, (S)-1-(5-(1,2-dimethyl-1H-pyrrolo[3,2-b]pyridin-3-yl)-1H-pyrrole-2-carbonyl)-N-(3,4,5-trifluorophenyl)pyrrolidine-3-carboxamide]
Second: Cc1ncccc1-c1ccc(C(=O)N2CC[C@H](C(=O)Nc3cc(F)c(F)c(F)c3)C2)[nH]1 [Example 80, (S)-1-(5-(2-methylpyridin-3-yl)-1H-pyrrole-2-carbonyl)-N-(3,4,5-trifluorophenyl) pyrrolidine-3-carboxamide]
The activity at 1 µM of the first is higher: greater than 90% for the first, less than 45% for the second.

First: Cc1nccnc1-c1ccc(C(=O)N2CC[C@H](C(=O)Nc3cc(F)c(F)c(F)c3)C2)[nH]1 [Example 92, (S)-1-(5-(3-methylpyrazin-2-yl)-1H-pyrrole-2-carbonyl)-N-(3,4,5-trifluorophenyl)pyrrolidine-3-carboxamide]
Second: Cc1ccnnc1-c1ccc(C(=O)N2CC[C@H](C(=O)Nc3cc(F)c(F)c(F)c3)C2)[nH]1 [Example 98, (S)-1-(5-(4-methylpyridazin-3-yl)-1H-pyrrole-2-carbonyl)-N-(3,4,5-trifluorophenyl) pyrrolidine-3-carboxamide]
The activity at 1 µM of the first is lower: 45 to 60% for the first, 70 to 80% for the second.

Compared with Cc1n[nH]c(C)c1-c1ccc(C(=O)N2CC[C@H](C(=O)Nc3cc(F)c(F)c(F)c3)C2)[nH]1 [Example 87, (S)-1-(5-(3,5-dimethyl-1H-pyrazol-4-yl)-1H-pyrrole-2-carbonyl)-N-(3,4,5-trifluorophenyl) pyrrolidine-3-carboxamide], Cc1cn[nH]c(=O)c1-c1ccc(C(=O)N2CC[C@H](C(=O)Nc3cc(F)c(F)c(F)c3)C2)[nH]1 [Example 124, (S)-1-(5-(5-methyl-3-oxo-2,3-dihydropyridazin-4-yl)-1H-pyrrole-2-carbonyl)-N-(3,4,5-trifluorophenyl)pyrrolidine-3-carboxamide] is higher in activity at 1 µM: less than 45% for the first, 45 to 60% for the second.

Cc1c[nH]nc1C(=O)N1CC[C@H](C(=O)Nc2cc(F)c(F)c(F)c2)C1 [Example 29, (S)-1-(4-methyl-1H-pyrazole-3-carbonyl)-N-(3,4,5-trifluorophenyl)pyrrolidine-3-carboxamide] and Cc1n[nH]cc1C(=O)N1CC[C@H](C(=O)Nc2cc(F)c(F)c(F)c2)C1 [Example 31, (S)-1-(3-methyl-1H-pyrazole-4-carbonyl)-N-(3,4,5-trifluorophenyl)pyrrolidine-3-carboxamide] cannot be ordered by activity at 1 µM: greater than 90% for the first, greater than 90% for the second.

First: Cc1ncccc1Cc1ccc(C(=O)N2CC[C@H](C(=O)Nc3cc(F)c(F)c(F)c3)C2)[nH]1 [Example 145, (S)-1-(5-((2-methylpyridin-3-yl)methyl)-1H-pyrrole-2-carbonyl)-N-(3,4,5-trifluorophenyl)pyrrolidine-3-carboxamide]
Second: O=C(Nc1cc(F)c(F)c(F)c1)[C@H]1CCN(C(=O)c2ccc(Cc3cccnc3)[nH]2)C1 [Example 143, (S)-1-(5-(pyridin-3-ylmethyl)-1H-pyrrole-2-carbonyl)-N-(3,4,5-trifluorophenyl)pyrrolidine-3-carboxamide]
The activity at 1 µM of the first is lower: 70 to 80% for the first, greater than 90% for the second.

First: N#Cc1ccc2[nH]c(C(=O)N3CC[C@H](C(=O)Nc4cc(F)c(F)c(F)c4)C3)cc2c1 [Example 8, (S)-1-(5-cyano-1H-indole-2-carbonyl)-N-(3,4,5-trifluorophenyl)pyrrolidine-3-carboxamide]
Second: Cc1ccc2cc(C(=O)N3CC[C@H](C(=O)Nc4cc(F)c(F)c(F)c4)C3)[nH]c2c1 [Example 13, (S)-1-(6-methyl-1H-indole-2-carbonyl)-N-(3,4,5-trifluorophenyl)pyrrolidine-3-carboxamide]
The activity at 1 µM of the first is higher: 80 to 90% for the first, 60 to 70% for the second.

First: O=C(Nc1cc(F)c(F)c(F)c1)[C@H]1CCN(C(=O)c2ccc(-c3cnccn3)[nH]2)C1 [Example 131, (S)-1-(5-(pyrazin-2-yl)-1H-pyrrole-2-carbonyl)-N-(3,4,5-trifluorophenyl)pyrrolidine-3-carboxamide]
Second: O=C(Nc1cc(F)c(F)c(F)c1)[C@H]1CCN(C(=O)c2cc3cccnc3[nH]2)C1 [Example 54, (S)-1-(1H-pyrrolo[2,3-b]pyridine-2-carbonyl)-N-(3,4,5-trifluorophenyl)pyrrolidine-3-carboxamide]
The activity at 1 µM of the first is lower: 45 to 60% for the first, 70 to 80% for the second.

First: Cc1ccc(C(=O)N2CC[C@H](C(=O)Nc3cc(F)c(F)c(F)c3)C2)s1 [Example 44, (S)-1-(5-methylthiophene-2-carbonyl)-N-(3,4,5-trifluorophenyl)pyrrolidine-3-carboxamide]
Second: O=C(Nc1cc(F)c(F)c(F)c1)[C@H]1CCN(C(=O)c2[nH]ccc2Cl)C1 [Example 16, (S)-1-(3-chloro-1H-pyrrole-2-carbonyl)-N-(3,4,5-trifluorophenyl)pyrrolidine-3-carboxamide]
The activity at 1 µM of the first is lower: 70 to 80% for the first, greater than 90% for the second.

First: O=C(Nc1cc(F)c(F)c(F)c1)[C@H]1CCN(C(=O)c2cnc[nH]2)C1 [Example 30, (S)-1-(1H-imidazole-5-carbonyl)-N-(3,4,5-trifluorophenyl)pyrrolidine-3-carboxamide]
Second: O=C(Nc1cc(F)c(F)c(F)c1)[C@H]1CCN(C(=O)c2ccc(C3CC3)[nH]2)C1 [Example 73, (S)-1-(5-cyclopropyl-1H-pyrrole-2-carbonyl)-N-(3,4,5-trifluorophenyl)pyrrolidine-3-carboxamide]
The activity at 1 µM of the first is higher: greater than 90% for the first, 45 to 60% for the second.

Compared with C[C@H]1[C@@H](C(=O)Nc2ccc(F)c(C#N)c2)CCN1C(=O)c1cc2cccnc2[nH]1 [Example 21, (2S,3S)—N-(3-cyano-4-fluorophenyl)-2-methyl-1-(1H-pyrrolo[2,3-b]pyridine-2-carbonyl) pyrrolidine-3-carboxamide], Cc1cc(NC(=O)[C@H]2CCN(C(=O)c3ccc(-c4c(C)nn(CCO)c4C)[nH]3)[C@H]2C)ccc1F [Example 126, (2S,3S)—N-(4-fluoro-3-methylphenyl)-1-(5-(1-(2-hydroxyethyl)-3,5-dimethyl-1H-pyrazol-4-yl)-1H-pyrrole-2-carbonyl)-2-methylpyrrolidine-3-carboxamide] is lower in activity at 1 µM: greater than 90% for the first, less than 45% for the second.

Cc1nn(CC(=O)N2CC(O)C2)c(C)c1-c1ccc(C(=O)N2CC[C@H](C(=O)Nc3cc(F)c(F)c(F)c3)C2)[nH]1 [Example 112, (S)-1-(5-(1-(2-(3-hydroxyazetidin-1-yl)-2-oxoethyl)-3,5-dimethyl-1H-pyrazol-4-yl)-1H-pyrrole-2-carbonyl)-N-(3,4,5-trifluorophenyl)pyrrolidine-3-carboxamide] showed an activity at 1 µM of 60 to 70%.
